Experimental data from US20050192360A1, “Method of treatment of pancreatic cancer” (priority 1999, published 2005).
Where a name gives a salt, the structure may show the parent alone. Read-outs that look alike come from different tables or passages of the source.

Legend:
[1] = system: xenografted Panc-1 human pancreatic tumors; assay: Human pancreatic cancer xenograft mouse model, monotherapy or combination with gemcitabine (Example 7); format: in vivo, male athymic nude (Ncr) mice; conditions: for Tumor re-growth after termination of treatment: 19 days post-treatment observation
Description: Human pancreatic cancer Panc-1 cells (2×10^6) are implanted subcutaneously into male athymic nude (Ncr) mice. […] The combination therapy group receives β-lapachone and gemcitabine on the same day in each treatment. Following treatment, the animals are observed for an additional 19 days. Tumors are measured throughout the treatment and post-treatment periods.

[2] = system: E2F-1 protein in Paca-2 cells; assay: Western blot of E2F-1 protein expression; format: cell-based, human
Description: Cells are harvested and whole cell lysates were prepared and resolved by SDS/PAGE, then Western blots are prepared using E2F-1 antibody obtained from Santa Cruz Biotechnology (Santa Cruz, Calif.) and an enhanced chemiluminescence assay system (Amersham Pharmacia).

[3] = system: xenografted Panc-1 human pancreatic tumors; format: in vivo, athymic female nude mice (Ncr); conditions: 5 treatments
Description: Athymic female nude mice (Ncr) are inoculated subcutaneously with 4×10^6 human Panc-1 pancreatic cancer cells, and the tumors are allowed to grow to […] in size. The animals are randomized into three groups. […] Mean tumor volume is then analyzed.

[4] = system: normal cells; assay: In vitro experiments using cell lines of various tissue origins; format: cell-based

Row | SMILES | Reduction of tumor size at termination of treatment ([1]; gemcitabine 120 mg/kg i.p., ten treatments every three days) | Tumor re-growth after termination of treatment ([1]; gemcitabine 120 mg/kg i.p.) [%] | Concentration at which E2F-1 protein is induced (lowest concentration tested) ([2]; 0.5 hours exposure) [µM] | E2F-1 protein expression (Western blot) ([2]; 0.5 hours exposure, 0.5, 2 or 4 μM) | Mean tumor volume ([3]; 40 mg/kg intraperitoneally every three days) | Mean tumor volume ([3]; 60 mg/kg intraperitoneally every three days) | Tumor regression at termination of treatment ([1]; β-lapachone alone 40 mg/kg i.p., ten treatments every three days) | Tumor re-growth after termination of treatment ([1]; β-lapachone alone 40 mg/kg i.p.) | Toxicity to normal cells in vitro [4]
1 | Nc1ccn([C@@H]2O[C@H](CO)[C@@H](O)C2(F)F)c(=O)n1 [gemcitabine, 2′-deoxy-2′,2′-difluorocytidine monohydrochloride (β-isomer), reference compound] | 30-40% | 400 | – | – | – | – | – | – | –
2 | CC1(C)CCC2=C(O1)c1ccccc1C(=O)C2=O [β-lapachone, 3,4-dihydro-2,2-dimethyl-2H-naphtho[1,2-b]pyran-5,6-dione] | – | – | 0.5 | upregulated | reduced | reduced | 30-40% | no significant re-growth | relatively non-toxic
